# Assay results from patent publication US20110183926A1, “TREATMENT USING CONTINUOUS LOW DOSE APPLICATION OF SUGAR ANALOGS” (UNIVERSITY OF MIAMI, priority 2008, published 2011).
# System: MDA-MB-435 cells
# Test: orthotopic human breast cancer mouse model, continuous 2-DG by intraperitoneal osmotic pump
# Format: in vivo
# Details: 19 μg/ml/hr or 30 mg/kg per 24 hrs continuously for 4 weeks; intraperitoneal osmotic pump filled with 328 mg/ml; MDA-MB-435 orthotopic in CD-1 nude mice
# Experimental: 2×10^6 MDA-MB-435 cells were injected orthotopically to CD-1 nude mice. After two weeks, osmotic pumps (Model 1004, Alzet Inc.) were inserted into the peritoneal cavity under general anesthesia. In one group of animals (n=9), the pumps contained 0.9% NaCl, while in the other group (n=5), the pumps were filled with 2-DG at a concentration of 328 mg/ml. Mice were weighed, and tumor measurements were taken by caliper three times weekly. Tumor measurements were converted to tumor volume by using the formula W×L^2/2. Mice were killed when either W or L exceeded 15 mm. At sacrifice, mice were weighed, and tumors were excised and checked histologically for verification of tumor growth.
smiles,measurement,value
"O=CC[C@@H](O)[C@H](O)[C@H](O)CO [2-DG, 2-deoxy-D-glucose]","tumor burden (tumor volume by caliper, W×L^2/2)",effectively reduces tumor burden
